A short description of data set [1]: Analysis of the filtered paclitaxel solution in glycerol + 1,2-propylene glycol. The data set is classed as physicochemical. The note with it: 100 mg paclitaxel in 100 g USP glycerol warmed to about 50° C. The procedure:
To this mixture, 60 g of 1,2-propylene glycol was added; the new mixture was mixed, and warmed further.

The nature of data set [2]: Analysis of the paclitaxel residue dissolved in 1,2-propylene glycol. The data set is classed as physicochemical. The conditions noted are these: 100 g 1,2-propylene glycol, 135° C. for 45 min. How it is done: The residue from filtering the glycerol solution of EXAMPLE 1 was added to 100 g of 1,2-propylene glycol, and the resulting mixture warmed to 50° C.; little of the solid material appeared to dissolve. The mixture was then placed in an oven at 135° C. and heated for 45 min.

`CC(=O)O[C@H]1C(=O)[C@@]2(C)[C@H]([C@H](OC(=O)c3ccccc3)[C@]3(O)C[C@H](OC(=O)[C@H](O)[C@@H](NC(=O)c4ccccc4)c4ccccc4)C(C)=C1C3(C)C)[C@]1(OC(C)=O)CO[C@@H]1C[C@@H]2O` [paclitaxel]: in data set [1], the “dissolution in glycerol (observation)” value was “little of the paclitaxel appeared to dissolve”. Also, the concentration in solution in data set [2] was 230 µg/mL.

For the origin of these results see patent publication US20090318568A1, “ADHERENT COATING FOR TISSUE SURFACE AND/OR TRANS-TISSUE SURFACE SUBSTANCE DELIVERY” (priority 2009, published 2009).
